Common to all, as to assay: cells
Holding throughout (assay type): cell-based

Assay [1] concerns HepG2. As to conditions: Homo sapiens, HepG2, 72 h; for CC50: read-out: LC50; for Emax: read-out: MI%. How it is done:
(§1) The assay was contracted and carried out by WuXi AppTec (Shanghai) Co., Ltd. The tumor cell lines CCRF-CEM, HL-60, KG-1, MOLT-4, K562, MV4-11, THP-1, HEL92.1.7, NCI-H929, RPMI-8226, Jurkat, Z138, RL, HS445, HepG2, MCF-7, Bx-PC-3, HT29, MIA PaCa-2, and SW620 were seeded at cell densities of […] 10^3 cells/well in a 96-well plate the day before drug incubation. Then, the plates were incubated for 72 h with the different concentrations of compound to be tested. After the incubation period, 50 μL of MTS was added and the tumor cells were incubated for 4 h at 37 °C. The data were read and collected by a Spectra Max 340 absorbance microplate reader. The compounds were tested in duplicate with nine serial concentrations (3.16-fold titrations with 198 μM as the highest concentration), and the data were analyzed by XLfit software.

Assay [2] relates to KG-1. As to conditions: Homo sapiens, KG-1, 72 h, read-out: LC50. How it is done: as §1
Assay [3] relates to HL-60. As to conditions: Homo sapiens, HL-60, 72 h; for CC50: read-out: LC50; for Emax: read-out: MI%. As for the experimental part: as §1
Assay [4] has as its system K562. As to conditions: Homo sapiens, K562, 72 h; for CC50: read-out: LC50; for Emax: read-out: MI%. As for the experimental part: as §1
Assay [5] has as its system CCRF-CEM. As to conditions: Homo sapiens, 72 h; for CC50: read-out: LC50; for Emax: read-out: MI%. As for the experimental part: as §1
The subject of assay [6] is MCF-7. As to conditions: Homo sapiens, MCF7, 72 h; for CC50: read-out: LC50; for Emax: read-out: MI%. How it is done:
as §1

For assay [7], the system named is MOLT-4. As to conditions: Homo sapiens, MOLT-4, 72 h; for CC50: read-out: LC50; for Emax: read-out: MI%. As for the experimental part: as §1
For assay [8], the system named is NCI-H929. As to conditions: for CC50: Homo sapiens, NCI-H929, 72 h, read-out: LC50; for MI%: NCI-H929, maximum inhibitory effect over concentration range. How it is done:
as §1

Assay [9] relates to RL. As to conditions: for CC50: Homo sapiens, 72 h, read-out: LC50; for MI%: maximum inhibitory effect over concentration range. How it is done:
as §1

The subject of assay [10] is Jurkat. As to conditions: Jurkat; for CC50: Homo sapiens, 72 h, read-out: LC50; for MI%: maximum inhibitory effect over concentration range. As for the experimental part: as §1
Assay [11] deals with BxPC-3. As to conditions: for MI%: BxPC-3, maximum inhibitory effect over concentration range; for CC50: Homo sapiens, BXPC-3, 72 h, read-out: LC50. How it is done: as §1
Assay [12] has as its system HS445. As to conditions: for MI%: HS445, maximum inhibitory effect over concentration range; for CC50: Homo sapiens, Hs 445, 72 h, read-out: LC50. How it is done:
as §1

Assay [13] relates to MV4-11. As to conditions: for CC50: Homo sapiens, MV4-11, 72 h, read-out: LC50; for MI%: MV4-11, maximum inhibitory effect over concentration range. As for the experimental part:
as §1

Assay [14] has as its system SW620. As to conditions: for CC50: Homo sapiens, SW-620, 72 h, read-out: LC50; for MI%: SW620, maximum inhibitory effect over concentration range. How it is done:
as §1

Assay [15] has as its system HT29. As to conditions: for MI%: HT29, maximum inhibitory effect over concentration range; for CC50: Homo sapiens, HT-29, 72 h, read-out: lC50. As for the experimental part: as §1
The test system of assay [16] is RPMI-8226. As to conditions: for CC50: Homo sapiens, RPMI-8226, 72 h, read-out: LC50; for MI%: RPMI-8226, maximum inhibitory effect over concentration range. How it is done: as §1
The subject of assay [17] is MIA PaCa-2. As to conditions: for CC50: Homo sapiens, MIA PaCa-2, 72 h, read-out: LC50; for MI%: MIA PaCa-2, maximum inhibitory effect over concentration range. As for the experimental part: as §1
Assay [18] relates to HEL92.1.7. As to conditions: for MI%: HEL92.1.7, maximum inhibitory effect over concentration range; for CC50: Homo sapiens, HEL 92.1.7, 72 h, read-out: LC50. As for the experimental part:
as §1

The test system of assay [19] is THP-1. As to conditions: for CC50: Homo sapiens, THP-1, 72 h, read-out: LC50; for MI%: THP-1, maximum inhibitory effect over concentration range. How it is done:
as §1

Among the data in PMC9743095 (Journal of Medicinal Chemistry, 2022) are CC50, Emax and MI% values, retold here.

`C[C@H](NP(=O)(Oc1cccc2ccccc12)O[C@@H]1C[C@@H](COP(=O)(N[C@H](C)C(=O)OCc2ccccc2)Oc2cccc3ccccc23)O[C@H]1n1cnc2c(N)ncnc21)C(=O)OCc1ccccc1` (some centres unmarked) [Compound 5b]: the CC50 in assay [1] was determined as 30.2 µM; in assay [2] it was 66.3 µM; in assay [3] it was 78.6 µM; in assay [4] it was 25.4 µM; in assay [5] it was 27.1 µM; in assay [6] it was 5.05 µM. Besides, the CC50 in [7] amounted to 14.8 µM. Also, the Emax in assay [1] stood at 90%; in assay [3], 99%; in assay [4] it was 87%; in assay [5], 99%; in assay [6], 99%; in assay [7] it was 100%.

For `C[C@H](NP(=O)(Oc1ccccc1)O[C@@H]1C[C@@H](COP(=O)(N[C@H](C)C(=O)OCc2ccccc2)Oc2ccccc2)O[C@H]1n1cnc2c(N)ncnc21)C(=O)OCc1ccccc1` (some centres unmarked) [Compound 5a], the CC50 stood at 85.5 µM in assay [1]; 112 µM in assay [2]; 143 µM in assay [3]; 26.3 µM in [4]; 64.8 µM in [5]; 10.3 µM in assay [6]. For the same compound, the CC50 in assay [7] is 62.9 µM. The Emax in assay [3] was 57%; in assay [4], 78%; in assay [5] it was 65%; in assay [6], 97%; in assay [7], 75%.

On to `C[C@H](N[P@](=O)(OC[C@@H]1C[C@@H](O)[C@H](n2cnc3c(N)ncnc32)O1)Oc1ccccc1)C(=O)OCc1ccccc1` [Sp-7a], for which the CC50 in assay [8] was 16 µM; in [9] it was 2.64 µM; in assay [10] it was 2.29 µM; in [1], 57 µM; in assay [11] it was 99 µM; in [12], 67 µM. The CC50 in assay [2] came to 18 µM; in [13], 1.03 µM; in [3] it was 11 µM; in [4] it was 3 µM; in [14], 35 µM; in assay [5], 2.04 µM. The CC50 in [6] is 5.87 µM; in [15] it was 25 µM; in [16] it was 19 µM; in assay [17], 18 µM; in assay [7], 0.43 µM; in [18], 11 µM. The CC50 in assay [19] was 66 µM. Further, the MI% amounted to 94% in [8]; 92.6% in assay [9]; 90% in assay [10]; 73% in assay [11]; 75% in [12]; 100% in assay [13]. For the same compound, the MI% came to 87% in [14]; 95% in assay [15]; 86.8% in assay [16]; 94% in assay [17]; 100% in assay [18]; 69% in assay [19]. Besides, the Emax in [1] turned out to be 73%; in assay [3], 92%; in assay [4], 96%; in assay [5], 97%; in assay [6], 94%; in assay [7], 98%.

`C[C@H](NP(=O)(Oc1ccccc1)O[C@@H]1C[C@@H](CO)O[C@H]1n1cnc2c(N)ncnc21)C(=O)OCc1ccccc1` (some centres unmarked) [Compound 6a]: the CC50 worked out at 83.1 µM in [1]; 79.4 µM in assay [2]; 31.1 µM in assay [3]; 26.9 µM in [4]; 17.6 µM in assay [5]; 5.06 µM in [6]. For the same compound, in assay [7], the CC50 worked out at 18.6 µM. Also, the Emax is 55% in assay [1]; 80% in assay [3]; 89% in assay [4]; 99% in [5]; 94% in assay [6]; 100% in assay [7].

With `C[C@H](N[P@@](=O)(OC[C@@H]1C[C@@H](O)[C@H](n2cnc3c(N)ncnc32)O1)Oc1ccccc1)C(=O)OCc1ccccc1` [Rp-7a], the CC50 was determined as 19 µM in assay [8]; 4 µM in assay [9]; 2.82 µM in assay [10]; 32 µM in assay [1]; 74 µM in [11]; 42 µM in assay [12]. In addition, the CC50 turned out to be 14 µM in assay [2]; 0.98 µM in assay [13]; 8.7 µM in assay [3]; 2.6 µM in [4]; 29 µM in [14]; 1.86 µM in [5]. The CC50 in [6] came to 2.94 µM; in assay [15], 16 µM; in [16], 25 µM; in assay [17], 14 µM; in assay [7], 0.57 µM; in assay [18], 11 µM. In addition, the CC50 in [19] was determined as 35 µM. Further, the MI% is on record as 97% in [8]; 96.8% in [9]; 97% in assay [10]; 71% in [11]; 99% in assay [12]; 100% in assay [13]. Moreover, the MI% in [14] turned out to be 82%; in assay [15], 97%; in assay [16], 90.8%; in assay [17], 96%; in assay [18] it was 98%; in assay [19], 91%. The Emax in assay [1] was 78%; in [3] it was 100%; in [4], 95%; in assay [5] it was 97%; in [6], 97%; in assay [7] it was 98%.

For `C[C@H](NP(=O)(N[C@@H](C)C(=O)OCc1ccccc1)OC[C@@H]1C[C@@H](O)[C@H](n2cnc3c(N)ncnc32)O1)C(=O)OCc1ccccc1` [Compound 9], the CC50 in assay [1] is 157 µM; in assay [2] it was 34.1 µM; in assay [3], 16.5 µM; in assay [4] it was 24.3 µM; in assay [5] it was 7.03 µM; in [6], 13 µM. Besides, the CC50 in assay [7] was found to be 3.52 µM. The Emax in assay [1] came to 55%; in assay [3], 100%; in [4], 97%; in assay [5], 100%; in assay [6], 97%; in [7], 100%.
